Patent US8835377B2, “Oral delivery of peptide pharmaceutical compositions” (UGP Therapeutics, Inc., priority 2004, dated 2014)
Where two headings read alike, the source gives them in different places.

Test: Pharmacokinetics after duodenal injection of unformulated or formulated Dmt-DALDA in anesthetized rats (plasma, HPLC-UV)
Format: in vivo
Conditions: for Tmax / Cmax / AUC: Unformulated; for Cmax / AUC: rat; for AUC: trapezoidal rule; for Dmt-DALDA plasma concentration: unformulated
Description: In the experiments represented in the subject Figure, six anesthetized rats (which were color-coded as: red, white, blue, orange, green and yellow) were given 0.7 mL Dmt-DALDA (1.6 mg/mL) with a syringe through a 27 gauge needle into the duodenum. This injection procedure was followed due to the technical difficulty inherent in preparing capsules which can be swallowed by small animals the size of a rat. The intraduodanal injection, therefore, mimics the release of the components of an enteric-coated capsule formulation which would pass through the esophagus and stomach and release its contents in the duodenum. Three of the rats (red, white and blue) were given Unformulated Dmt-DALDA in which there were no additional components (i.e., other than the Dmt-DALDA), while the other three rats (orange, green and yellow) were given Formulated Dmt-DALDA which included, in addition to the Dmt-DALDA, 0.5M citric acid and lauroyl carnitine (10 mg/ml). Samples of blood were taken from the carotid artery through an indwelling catheter before and 5, 15, 30, 60 and 120 minutes after the administration of the respective formulations (i.e., Formulated and Unformulated). The blood samples were centrifuged and the resulting plasma supernatants were stored frozen at −20° C. […] Peptide was detected with an ultraviolet (UV) detector set at a wavelength of 210 nm. […] Table I, moreover, provides the standard deviations for the data obtained regarding each of the test rats, which standard deviations are also indicated in FIG. 1.
Table II (below) summarizes the pharmacokinetic parameters in rats of orally administered unformulated and formulated Dmt-DALDA as those terms are defined above. Cmax refers to the maximum concentration of peptide detected in the rat plasma. The area under the curve (AUC) is a measure of the extent of peptide absorption and is calculated by the trapezoidal rule from a plot of peptide concentration as a function of time. Tmax indicates when the maximum concentration of the Dmt-DALDA in the blood serum was obtained.

Molecule Cc1cc(O)cc(C)c1C[C@H](N)C(=O)N[C@H](CCCNC(=N)N)C(=O)N[C@@H](Cc1ccccc1)C(=O)N[C@@H](CCCCN)C(N)=O [unformulated] has a Tmax (Avg (n = 3)) of 5.00 min, a Tmax (in vivo, 1.12 mg, Red rat, read-out: Tmax (converted)) of 5 min and a Cmax (in vivo, 1.12 mg, Avg (n = 3)) of 510 ng/mL. It also gave an AUC (in vivo, 1.12 mg, Avg (n = 3)) of 64 ng·h/mL, a Cmax (in vivo, 1.12 mg, Red rat) of 1540 ng/mL and an AUC (in vivo, 1.12 mg, Red rat) of 192 ng·h/mL. For the same molecule, the “Dmt-DALDA detected in plasma” value (rats given unformulated Dmt-DALDA) was “virtually undetectable”, the Dmt-DALDA plasma concentration (avg of rats, 0 min) was 0.00 µg/mL and the Dmt-DALDA plasma concentration (avg of rats, 15 min) was 0.00 µg/mL. For the same molecule, the Dmt-DALDA plasma concentration (avg of rats, 30 min) was 0.00 µg/mL, the Dmt-DALDA plasma concentration (avg of rats, 60 min) was 0.00 µg/mL and the Dmt-DALDA plasma concentration (avg of rats, 120 min) was 0.00 µg/mL. For the same molecule, the Dmt-DALDA plasma concentration (blue rat, 0 min) was 0.00 µg/mL, the Dmt-DALDA plasma concentration (blue rat, 5 min) was 0.00 µg/mL and the Dmt-DALDA plasma concentration (blue rat, 15 min) was 0.00 µg/mL. For the same molecule, the Dmt-DALDA plasma concentration (blue rat, 30 min) was 0.00 µg/mL, the Dmt-DALDA plasma concentration (blue rat, 60 min) was 0.00 µg/mL and the Dmt-DALDA plasma concentration (blue rat, 120 min) was 0.00 µg/mL. The Dmt-DALDA plasma concentration (red rat, 0 min) was 0.00 µg/mL, the Dmt-DALDA plasma concentration (red rat, 15 min) was 0.00 µg/mL and the Dmt-DALDA plasma concentration (red rat, 30 min) was 0.00 µg/mL. It also gave a Dmt-DALDA plasma concentration (red rat, 60 min) of 0.00 µg/mL, a Dmt-DALDA plasma concentration (red rat, 120 min) of 0.00 µg/mL and a Dmt-DALDA plasma concentration (white rat, 0 min) of 0.00 µg/mL. The Dmt-DALDA plasma concentration (white rat, 5 min) was 0.00 µg/mL, the Dmt-DALDA plasma concentration (white rat, 15 min) was 0.00 µg/mL and the Dmt-DALDA plasma concentration (white rat, 30 min) was 0.00 µg/mL. The Dmt-DALDA plasma concentration (white rat, 60 min) was 0.00 µg/mL and the Dmt-DALDA plasma concentration (white rat, 120 min) was 0.00 µg/mL.
